# Assay results published in patent US6413959B1, “Method of treating depression with arylglycinamide derivatives” (Boehringer Ingelheim KG, priority 1995, dated 2002).
# pKi: −log10 of the molar value.
# How the values were obtained:
# [1] = target: T1, NK1 (Cavia porcellus, UniProt P30547); test: Inhibition of the lowering of blood pressure caused by NK1 in anaesthetised guinea pigs; assay type: in vivo; conditions: guinea pig, iv, antagonist given by intraduodenal route, NK1-agonist [βAla4, Sar9, Met(O2)11] SP(4-11) 0.2 μmol/kg i.v., read-out: ID50 (dose which inhibits the lowering of blood pressure caused by the NK1-agonist by 50%)
# T1 construct: Guinea pigs weighing 300-500 grams were anaesthetised with pentobarbital; from tissue; host or cells: whole anaesthetised guinea pig (in vivo)
# T1 sequence (P30547 whole entry): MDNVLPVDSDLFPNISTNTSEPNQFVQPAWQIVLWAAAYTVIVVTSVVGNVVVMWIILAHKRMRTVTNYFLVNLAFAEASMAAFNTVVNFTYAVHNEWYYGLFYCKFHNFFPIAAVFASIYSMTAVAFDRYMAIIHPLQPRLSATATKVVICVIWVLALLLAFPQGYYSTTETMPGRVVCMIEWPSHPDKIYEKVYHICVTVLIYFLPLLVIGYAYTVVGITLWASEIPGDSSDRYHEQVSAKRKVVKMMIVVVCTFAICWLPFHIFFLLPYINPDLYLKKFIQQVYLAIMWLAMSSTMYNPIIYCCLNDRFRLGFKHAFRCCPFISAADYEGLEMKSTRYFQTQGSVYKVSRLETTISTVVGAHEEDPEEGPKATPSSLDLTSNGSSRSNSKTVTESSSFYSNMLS
# [2] = target: T2, NK1-receptor (substance P-receptor) (Homo sapiens, UniProt P25103); test: NK1-receptor affinity, displacement of 125I-labelled substance P on IM-9 cells; assay type: binding; conditions: human lymphoblastoma cells (IM-9) with cloned NK1-receptors
# T2 construct: expressed in transfected cells; host or cells: IM-9 human lymphoblastoma cells
# T2 sequence (P25103 whole entry): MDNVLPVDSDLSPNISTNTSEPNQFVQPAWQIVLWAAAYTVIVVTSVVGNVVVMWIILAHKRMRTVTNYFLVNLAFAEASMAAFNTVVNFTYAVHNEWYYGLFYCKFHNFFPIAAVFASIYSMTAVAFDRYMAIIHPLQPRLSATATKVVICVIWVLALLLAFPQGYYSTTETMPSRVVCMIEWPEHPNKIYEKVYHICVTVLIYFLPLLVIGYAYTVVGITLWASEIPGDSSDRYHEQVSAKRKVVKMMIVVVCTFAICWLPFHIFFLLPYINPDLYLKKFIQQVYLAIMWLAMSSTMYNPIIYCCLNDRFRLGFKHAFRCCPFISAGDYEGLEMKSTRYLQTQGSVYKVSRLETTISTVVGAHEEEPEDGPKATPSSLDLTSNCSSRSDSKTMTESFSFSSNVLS
compound,measurement,setting,value
CN(CCc1cc(C(F)(F)F)cc(C(F)(F)F)c1)C(=O)C(c1ccccc1)N1CCN(C2CCCCC2)CC1 (stereo not drawn) [Example 5],ED50,[1],1.4 mg/kg
same,melting point,,158 to 164 °C
same,pKi,[2],8.89
